In general, EC50 refers to the midpoint of the concentration-response curve.

The values that follow come from US12122761B2, “2-azaspiro[3.4]octane derivatives as M4 agonists” (NOVARTIS AG, priority 2019, dated 2024).

The structures appear in SMILES notation. Where only a bound is given, the exact number is not on record here.

For test [1], the system named is hyperactivity in mice induced by the stimulant d-amphetamine. As to conditions: general statement on clinically efficacious muscarinic antipsychotics; xanomeline used as positive control (1.0 mg/kg, SC); cited from earlier work.
For test [2], the target named is T1, human cloned CHRM3 receptor (M3_CHO cells) (Homo sapiens, UniProt P20309).
T1 construct: expressed in transfected cells; host or cells: CHO-K1
T1 sequence (P20309 whole entry): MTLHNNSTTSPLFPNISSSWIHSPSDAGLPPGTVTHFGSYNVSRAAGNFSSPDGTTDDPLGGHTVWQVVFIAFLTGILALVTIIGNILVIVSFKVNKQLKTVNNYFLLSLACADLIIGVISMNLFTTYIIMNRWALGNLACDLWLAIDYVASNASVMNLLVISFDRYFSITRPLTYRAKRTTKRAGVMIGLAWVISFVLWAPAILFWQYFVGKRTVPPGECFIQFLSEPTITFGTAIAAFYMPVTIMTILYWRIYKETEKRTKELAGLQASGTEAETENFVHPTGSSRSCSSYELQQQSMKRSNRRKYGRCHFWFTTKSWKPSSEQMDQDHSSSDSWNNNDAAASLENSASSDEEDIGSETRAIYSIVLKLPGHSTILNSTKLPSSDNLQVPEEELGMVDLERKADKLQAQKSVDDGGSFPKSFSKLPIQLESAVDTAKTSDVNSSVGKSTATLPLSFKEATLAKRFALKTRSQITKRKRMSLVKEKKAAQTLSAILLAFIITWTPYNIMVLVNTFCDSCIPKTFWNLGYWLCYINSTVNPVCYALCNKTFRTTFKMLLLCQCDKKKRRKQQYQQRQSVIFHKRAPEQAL
The experiment in a line: CHRM3 Ca++ Flux Assay (agonist mode, FDSS 7000EX). The format is cell-based. Conditions: for EC50: agonist mode, geometric mean if tested more than once, read-out: M3 FDSS EC50. How it is done:
(§1) The above examples were characterized by measuring the intracellular mobilization of Ca++ ions caused by signaling events mediated by the receptor. The Intra-cellular Calcium flux levels were captured by the highly sensitive Ca++ indicator, Calcium Assay Kit (BD Biosciences, Catalog Number 640178). The fluorescent activity from all receptors were monitored by the fluorescent imager, FDSS 7000EX (Hamamatsu) over a span of 3 minutes.
(§2) CHO-K1 cells stably expressing the human cloned CHRM3 receptor (M3_CHO cells) were grown and maintained in a monolayer culture with F12/HAM (Life Technologies) supplemented with 10% Fetal Bovine Serum, 1× Pen-Strep, and 0.4 mg/mL Geneticin in a humidified atmosphere (5% CO2) at 37° C. The cultures were grown to 80-9 0% confluency in T150 flasks (Corning) and washed with 1×DPBS and lifted with 0.05% Trypsin (Life Technologies). The cells were then spun (1K rpm, 3 minutes) and frozen using Recovery Cell Culture Freezing Media (Gibco Technologies). Cells were stored in liquid nitrogen and thawed a day before the assay. A similar procedure was used for cells stably expressing the human cloned CHRM5 receptor (M5_CHO).
(§3) Prior to the day of the assay, stable M3_CHO or M5_CHO cells were thawed and plated on Greiner 384 well black TC treated plates at 12K cells/well in F12/DMEM supplemented with 10% FBS (Hyclone) and kept overnight in a humidified atmosphere (5% CO2) at 37° C. The next day, cells were loaded with Ca^++ dye (BD Biosciences) using Loading Buffer (HBSS +Ca/+Mg, 20 mM HEPES, 2.5 mM Probenecid) and placed back in cell incubator for a minimum of 1 hour. After incubation, the dye was replaced with Assay Buffer (HBSS −Ca/−Mg, 20 mM HEPES, 2.5 mM Probenecid) and kept at room temperature in the dark before running on cell imager. The FDSS 7000EX (Hamamatsu) was used to acquire Ca^++ traces from cells treated with 11 point dose response of compounds in triplicate in order to generate dose response curves in agonist mode. All compounds were serially diluted in DMSO then prepared in Assay Buffer for Ca^++ flux studies. The dose response curves were generated from the average of triplicate wells obtained from each data point and used a non-linear regression of four parameter dose response algorithm. The Percent Activity (PA) was measured to EC100 of Carbachol.

Test [3] concerns the target T2, human cloned CHRM5 receptor (M5_CHO) (Homo sapiens, UniProt P08912).
T2 construct: expressed in transfected cells; host or cells: CHO (M5_CHO)
T2 sequence (P08912 1-532): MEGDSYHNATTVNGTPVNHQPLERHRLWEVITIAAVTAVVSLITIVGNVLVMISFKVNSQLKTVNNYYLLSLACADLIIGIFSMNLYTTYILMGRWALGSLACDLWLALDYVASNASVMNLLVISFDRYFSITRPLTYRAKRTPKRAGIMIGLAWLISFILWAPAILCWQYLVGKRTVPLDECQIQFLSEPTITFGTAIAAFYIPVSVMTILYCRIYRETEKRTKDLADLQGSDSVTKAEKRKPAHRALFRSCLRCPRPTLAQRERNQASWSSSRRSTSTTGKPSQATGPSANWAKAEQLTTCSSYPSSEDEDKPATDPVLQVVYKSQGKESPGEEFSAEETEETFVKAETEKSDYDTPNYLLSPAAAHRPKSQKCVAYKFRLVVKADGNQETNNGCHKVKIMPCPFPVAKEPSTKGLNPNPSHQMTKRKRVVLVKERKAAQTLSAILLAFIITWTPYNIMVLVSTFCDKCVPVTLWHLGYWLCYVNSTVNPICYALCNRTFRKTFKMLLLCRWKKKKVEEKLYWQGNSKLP
As to the kind of experiment: CHRM5 Ca++ Flux Assay (agonist mode, FDSS 7000EX). It is filed as cell-based. Conditions: Percent Activity measured to EC100 of Carbachol; read-out: M5 FDSS PA. How it is done: as §1, §2, §3

Setting [4] is: Percent Activity measured to EC100 of Carbachol.

For the molecule `CCCCCCOc1nsnc1C1=CCCN(C)C1` [xanomeline], the “activity in the amphetamine induced hyperlocomotion assay” value in test [1] is “active”. For `COc1cc(F)ccc1C1CCN([C@@H]2CCC3(C2)CN(C(=O)C2COC2)C3)CC1` [Example 6C, (R)-(6-(4-(4-fluoro-2-methoxyphenyl)piperidin-1-yl)-2-azaspiro[3.4]octan-2-yl)(oxetan-3-yl)methanone], the Emax was determined as 0% in test [2] (Percent Activity measured to EC100 of Carbachol, read-out: M3 FDSS PA) and 0% in test [3]. On to `COc1ccccc1C1CCN([C@H]2CCC3(C2)CN(C(=O)C2COC2)C3)CC1` (single isomer, unassigned) [Example 8D, (S)-(6-(4-(2-methoxyphenyl)piperidin-1-yl)-2-azaspiro[3.4]octan-2-yl)(oxetan-3-yl)methanone or (R)-(6-(4-(2-methoxyphenyl)piperidin-1-yl)-2-azaspiro[3.4]octan-2-yl)(oxetan-3-yl)methanone], for which the “M3 FDSS PA” value in test [2] (setting [4]) came to 0%. Also, the EC50 in test [2] is more than 25 µM. In the case of `COc1ccccc1C1CCN([C@H]2CCC3(C2)CN(C(=O)C2COC2)C3)CC1` (single isomer, unassigned) [Example 8C, (S)-(6-(4-(2-methoxyphenyl)piperidin-1-yl)-2-azaspiro[3.4]octan-2-yl)(oxetan-3-yl)methanone or (R)-(6-(4-(2-methoxyphenyl)piperidin-1-yl)-2-azaspiro[3.4]octan-2-yl)(oxetan-3-yl)methanone], the “M3 FDSS PA” value in test [2] (setting [4]) is reported as 0%. Further, in test [2], the EC50 was more than 25 µM.
